This note sets out measurements from ChEMBL document CHEMBL6087395, “NGT: Generative AI with Synthesizability Guarantees Discovers MC2R Inhibitors from a Tera-Scale Virtual Screen” (J Med Chem, 2024).

Experiment [1] in a line: Antagonist activity at human MC2 receptor expressed in HEK293 cells assessed as inhibition of ACTH-induced cAMP accumulation measured after 70 mins incubation by fluorescence analysis. The following applies: HEK293, 70 min. Background: cAMP levels reflect the balance of adenylyl cyclase and phosphodiesterase activity.
For another experiment, the target named is Melanocortin receptor 3 (Homo sapiens, UniProt P41968). Description: Antagonist activity at human MC3 receptor expressed in HEK293 cells assessed as inhibition of ACTH-induced cAMP accumulation measured after 70 mins incubation by fluorescence analysis. Type of experiment: functional, cell-based.
For a further experiment, the target named is Melanocortin receptor 4 (Homo sapiens, UniProt P32245). Kind of experiment: Antagonist activity at human MC4 receptor expressed in HEK293 cells assessed as inhibition of ACTH-induced cAMP accumulation measured after 70 mins incubation by fluorescence analysis. Type of experiment: functional, cell-based.
Another experiment addresses Melanocortin receptor 5 (Homo sapiens, UniProt P33032). Kind of experiment: Antagonist activity at human MC5 receptor expressed in HEK293 cells assessed as inhibition of ACTH-induced cAMP accumulation measured after 70 mins incubation by fluorescence analysis. The experiment is classed as functional, cell-based.

Chain of Melanocortin receptor 5 (P33032 whole entry): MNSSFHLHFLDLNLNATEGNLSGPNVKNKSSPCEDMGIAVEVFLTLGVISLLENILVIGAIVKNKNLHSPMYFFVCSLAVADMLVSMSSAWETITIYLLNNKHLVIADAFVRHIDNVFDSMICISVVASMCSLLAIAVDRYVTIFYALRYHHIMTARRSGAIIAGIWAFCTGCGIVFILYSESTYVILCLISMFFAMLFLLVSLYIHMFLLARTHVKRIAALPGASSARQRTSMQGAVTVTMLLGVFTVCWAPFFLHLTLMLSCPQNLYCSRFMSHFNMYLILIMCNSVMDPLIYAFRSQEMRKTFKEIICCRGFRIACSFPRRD
Chain of Melanocortin receptor 3 (P41968 whole entry): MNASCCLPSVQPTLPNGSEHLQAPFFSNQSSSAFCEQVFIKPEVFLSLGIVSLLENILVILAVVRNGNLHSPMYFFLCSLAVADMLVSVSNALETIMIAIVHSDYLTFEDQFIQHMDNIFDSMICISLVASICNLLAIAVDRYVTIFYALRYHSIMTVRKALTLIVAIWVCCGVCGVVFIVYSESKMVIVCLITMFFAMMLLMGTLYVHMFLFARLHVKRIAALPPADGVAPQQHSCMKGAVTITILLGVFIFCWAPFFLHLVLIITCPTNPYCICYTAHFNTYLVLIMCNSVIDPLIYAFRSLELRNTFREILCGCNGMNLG
Chain of Melanocortin receptor 4 (P32245 whole entry): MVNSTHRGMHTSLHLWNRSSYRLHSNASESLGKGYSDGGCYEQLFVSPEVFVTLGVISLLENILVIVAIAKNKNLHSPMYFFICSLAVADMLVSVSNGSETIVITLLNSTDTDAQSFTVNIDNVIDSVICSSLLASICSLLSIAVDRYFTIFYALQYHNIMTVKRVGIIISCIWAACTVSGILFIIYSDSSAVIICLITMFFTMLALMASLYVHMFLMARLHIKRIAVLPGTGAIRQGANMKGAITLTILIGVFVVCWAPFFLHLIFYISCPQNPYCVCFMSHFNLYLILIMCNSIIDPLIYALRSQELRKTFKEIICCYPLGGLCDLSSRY

For the compound `COc1ccc(C(CN(C)C)NC(=O)COc2ccc(-c3cccc4c3OCC4)cc2Cl)cc1` (stereo not given), the EC50 in experiment [1] came to 4.1 µM; on Melanocortin receptor 3, 37 µM; on Melanocortin receptor 4, 31 µM; on Melanocortin receptor 5, 13 µM.
For the compound `CCc1ccc(-c2cc(CNC3CCN(c4ccccc4C(N)=O)C3)c(OC)cc2F)s1` (stereo not given), the EC50 at Melanocortin receptor 3 was 33 µM.
Regarding `O=C(NCC(F)F)C(C1CC2(C1)CC21CCC1)N(C(=O)c1cc2c(cn1)CCCC2)[C@H]1C[C@@H](N2CCCC2)C1` (stereo not given in full), the EC50 in experiment [1] was 38 µM; on Melanocortin receptor 3, 50 µM; on Melanocortin receptor 4, 36 µM; at Melanocortin receptor 5, 102 µM.
The matching figures for `O=C1NCCOc2ccc(CNCC3(c4ccc(C=C5CCSCC5)s4)CCC3)cc21`: 11 µM, 33 µM, 32 µM and 31 µM.
With `Cc1ccc(-c2cc(Cl)cs2)cc1C1(C(=O)NC2CN(C3CCC3)C2)CC1`, at Melanocortin receptor 5, the EC50 was determined as 16 µM.
On to `CCCN1CC(NC(=O)[C@@H]2C[C@H]2c2cccc(-c3cc(Cl)ccc3OC)c2Cl)C1`, for which, at Melanocortin receptor 3, the EC50 was found to be 19 µM.
As for `COCCNC(=O)C(C1CC2(C1)CC21CCC1)N(C(=O)c1cn(C)cn1)C1CCCN(c2cccc(C)c2)C1` (stereo not given), the EC50 in experiment [1] was 7 µM; on Melanocortin receptor 3, 32 µM; on Melanocortin receptor 4 it was 33 µM; on Melanocortin receptor 5, 72 µM.
The matching figures for `CC1CC(N2CCCC2)CN1C(=O)c1cc(O)cc(-c2cc(Cl)ccc2F)c1` (stereo not given): 6.7 µM, 94 µM, 425 µM and 154 µM.
`COc1cc(C)c(-c2c(C)c(C)c(C(=O)NCC3CCCN3CCCO)c(C)c2C)cc1C` (stereo not given): the EC50 at Melanocortin receptor 3 worked out at 156 µM; at Melanocortin receptor 5, 150 µM.

For orientation: EC50 means the midpoint of the concentration-response curve.
